Assay results reported in US4100346A, “Certain 7(o-amino-methyl- or methylaminomethylphenyl- or cyclohexadienyl- or thienylacetamide)-3[1-carboxymethyl-(or ethyl- or propyl-)-tetrazol-5-ylthiomethyl]-3-cephem-4-carboxylic acids” (Bristol-Myers Company, priority 1976, dated 1978).
In brackets after ≈: the same amount, converted by molar mass.

How the values were obtained:
S. pyogenes [1] = assay: Growth inhibitory activity, antibiotic dilution technique; settings: Streptococcus pyogenes, read-out: concentration inhibiting all strains
S. aureus [2] = assay: as above; settings: 63 strains tested
[3] = tested on: Mycobacterium tuberculosis; assay type: cell-based
[4] = Solubility in water, buffer or urine; settings: soluble as Na^+ salt, as Na^+ salt
[5] = tested on: Enterobacter sp. and Citrobacter sp.; assay: Growth inhibitory activity, antibiotic dilution technique (text summary); settings: compared with cephalothin, cephaloridine, cefazolin
Ent. cloacae = assay: M.I.C. by Tube Dilution in Nutrient Broth (Examples 1 and 2); assay type: cell-based; settings: Enterobacter cloacae
From the text: (§1) | **Dilution of overnight broth culture

K. pneumoniae [6] = assay: as above; assay type: cell-based; settings: Klebsiella pneumoniae
From the text: as §1

D. pneumoniae = assay: MIC by Tube Dilution Technique in Nutrient Broth (Example 9 table); assay type: cell-based; settings: Streptococcus pneumoniae; Dp-4 D. pneumoniae A9585
From the text: (§2) MIC (mcg./ml.) by Tube Dilution Technique in Nutrient Broth.

S. pyogenes [7] = assay: as above; assay type: cell-based; settings: Streptococcus pyogenes; Sp-3 S. pyogenes A9604
From the text: as §2

E. coli = assay: as above; assay type: cell-based; settings: Escherichia coli
From the text: as §2

P. aeruginosa = assay: as above; assay type: cell-based; settings: Pseudomonas aeruginosa; P. aeruginosa A9843
From the text: as §2

P. morganii = assay: as above; assay type: cell-based; settings: Morganella morganii; Pg-8 P. morganii A15153
From the text: as §2

K. pneumoniae [8] = assay: as above; assay type: cell-based; settings: Klebsiella pneumoniae
From the text: as §2

E. cloacae = assay: as above; assay type: cell-based; settings: Enterobacter cloacae; El-1 E. cloacae A9656
From the text: as §2

P. mirabilis = assay: as above; assay type: cell-based; settings: Proteus mirabilis; Pm-2 P. mirabilis A9900
From the text: as §2

S. aureus [9] = assay: as above; assay type: cell-based; settings: Staphylococcus aureus
From the text: as §2

S. enteritidis = assay: as above; assay type: cell-based; settings: Salmonella enterica; Se-1 S. enteritidis A9531
From the text: as §2

S. marcescens = assay: as above; assay type: cell-based; settings: Serratia marcescens; Sm-1 S. marcescens A20019
From the text: as §2

Str. pyogenes = assay: M.I.C. by Tube Dilution in Nutrient Broth (Examples 1 and 2); assay type: cell-based; settings: Streptococcus pyogenes; Str. pyogenes A9604 (10^-3); 45% Antibiotic Assay Broth + 50% Nutrient Broth + 5% serum
From the text: (§3) *45% Antibiotic Assay Broth + 50% Nutrient Broth + 5% serum
(§4) **Dilution of overnight broth culture

Str. pneumoniae = assay: as above; assay type: cell-based; settings: Streptococcus pneumoniae; Str. pneumoniae A9585 (10^-3 dilution of overnight broth culture); 45% Antibiotic Assay Broth + 50% Nutrient Broth + 5% serum
From the text: as §3, §4

Streptococcus faecalis = assay: Growth inhibitory activity, antibiotic dilution technique
[10] = Stability in solution, 0.005 M phosphate buffer pH 7.4, 37° C.; assay type: physicochemical; settings: pH 7.4 and 37° C.
Method: Stability in Solution. Stability in solution was determined at 37° C. in 0.005 M phosphate buffer of pH 7.4. […] Residual antibiotic activity was determined periodically over a 24-hour period by a turbidimetric assay procedure or by an antibiotic diffusion technique (cephalothin).

[11] = tested on: Escherichia coli, Klebsiella pneumoniae, Proteus mirabilis, Proteus vulgaris, Salmonella sp., Shigella sp. and Neisseria meningitidis; assay: Growth inhibitory activity, antibiotic dilution technique (text summary); assay type: cell-based; settings: growth inhibitory activity vs cephalothin, cephaloridine, cefazolin
S. viridans = assay: Growth inhibitory activity, antibiotic dilution technique; settings: Streptococcus viridans, read-out: concentration inhibiting all strains

In the case of `NCc1ccccc1CC(=O)N[C@@H]1C(=O)N2C(C(=O)O)=C(CSc3nnnn3CC(=O)O)CS[C@H]12` [Example 1], the MIC (S. pyogenes [1]) is reported as 0.5 µg/mL (≈ 0.962 µM), the “number of strains of S. aureus inhibited” value (S. aureus [2]; at 4 mcg./ml.) is reported as 62 strains and the “number of strains of S. aureus inhibited” value (S. aureus [2]; at 8 mcg./ml.) is reported as 63 strains. The “times more active than the control compounds” value [3] was 4 to 32, the solubility [4] was ≥ 250 mg/mL and the “activity against Enterobacter sp. and Citrobacter sp.” value [5] was “alone was active”. For the same compound, the MIC (Ent. cloacae; Ent. cloacae A9657 (10^-4)) was 0.25 µg/mL (≈ 0.481 µM), the MIC (Ent. cloacae; Ent. cloacae A9659 (10^-4)) was 32 µg/mL (≈ 61.6 µM) and the MIC (Ent. cloacae; Ent. cloacae A9656 (10^-4)) was > 125 µg/mL. For the same compound, the MIC (K. pneumoniae [6]; K. pneumoniae A9977 (10^-4)) was 0.13 µg/mL (≈ 0.25 µM), the MIC (K. pneumoniae [6]; K. pneumoniae A15130 (10^-4)) was 2 µg/mL (≈ 3.85 µM) and the MIC (D. pneumoniae) was 0.16 µg/mL (≈ 0.308 µM). It also gave an MIC (S. pyogenes [7]) of 0.16 µg/mL (≈ 0.308 µM), an MIC (E. coli; Ec-1 E. coli NIHJ) of 0.8 µg/mL (≈ 1.54 µM) and an MIC (E. coli; Ec-3 E. coli Juhl A15119) of 0.8 µg/mL (≈ 1.54 µM). For the same compound, the MIC (E. coli; Ec-58 E. coli A9675) was 6.3 µg/mL (≈ 12.1 µM), the MIC (P. aeruginosa) was > 100 µg/mL and the MIC (P. morganii) was 6.3 µg/mL (≈ 12.1 µM). For the same compound, the MIC (K. pneumoniae [8]; Kp-3 K. pneumoniae A9977) was 0.2 µg/mL (≈ 0.385 µM), the MIC (K. pneumoniae [8]; Kp-4 K. pneumoniae A15130) was 1.6 µg/mL (≈ 3.08 µM) and the MIC (E. cloacae) was 50 µg/mL (≈ 96.2 µM). The MIC (P. mirabilis) was 0.4 µg/mL (≈ 0.77 µM), the MIC (S. aureus [9]; Sa-2 S. aureus +50% serum) was > 3.1 µg/mL and the MIC (S. aureus [9]; Sa-2 S. aureus Smith A9537) was 3.1 µg/mL (≈ 5.97 µM). The MIC (S. aureus [9]; Sa-11 S. aureus BX-1633 A9606) was 3.1 µg/mL (≈ 5.97 µM), the MIC (S. aureus [9]; Sa-44 S. aureus A15097) was 6.3 µg/mL (≈ 12.1 µM) and the MIC (S. enteritidis) was 0.2 µg/mL (≈ 0.385 µM). The MIC (S. marcescens) was > 100 µg/mL, the MIC (Str. pyogenes) was 0.13 µg/mL and the MIC (Str. pneumoniae) was 0.13 µg/mL. For the same compound, the “susceptibility of Streptococcus faecalis” value (Streptococcus faecalis) was “resistant”, the half-life [10] was > 24 h and the “times more active than the reference cephalosporins” value [11] was 2 to 16. The MIC (S. viridans) was 4 µg/mL (≈ 7.7 µM).
